Source: paper PMC6030159 (Scientific Reports, 2018)
Entries after “also recorded” stand apart in the source; their conditions may differ. Like-named read-outs stand apart in the source and are kept apart here.

Experiments:
BCL-XL = system: T1, BCL-XL; set-up: method as in PMID 23824742; details: in vitro fluorescence polarization, BCL-XL:BAK; cited from earlier work
T1 construct: purchased Abcam

MYCN and MAX proteins = assay: Western blot of MYCN and MAX in SK-N-DZ and Kelly cells; assay type: cell-based; details: 2.5 µM, 17 hours
Procedure: These assays were performed essentially as described in[67],[68]. […] C) MST of labeled MYC (approximately 200 nM) titrated with MYCMI-6 as indicated. Data are shown as mean ± standard deviation of 5 biological repeats. Supplemental Figure S5. Characterization of the binding of MYCMI-6 and other MYC:MAX inhibitory compounds on MYC and different control proteins by surface plasmon resonance (SPR). All sensorgrams are reference surface subtracted. A) SPR assay of MYCMI-6 injected over immobilized MYC in an equilibrium binding experiment where the theoretical Rmax is 23 RU. B) SPR assay of KJ-Pyr-9 injected over immobilized MYC. Theoretical Rmax is 29 RU. C) Sensorgram of MAX SPR assay. MYCMI-6 was injected at various concentrations over immobilized MAX bHLHZip (theoretical Rmax of 24 RU). D) Sensorgram of MAD SPR assay. MYCMI-6 was injected at various concentrations over immobilized GST-MAD bHLHZip (theoretical Rmax of 24 RU). E) Sensorgram of the BCL-XL SPR assay. MYCMI-6 was injected at various concentrations over immobilized BCL-XL (theoretical Rmax of 14 RU). F) Sensorgram of the BSA SPR assay. MYCMI-6 was injected at various concentrations over immobilized BSA (theoretical Rmax of 5 RU). Supplemental Figure S6. Expression of MYCN and MAX proteins after MYCMI-6 treatment in MYCN-amplified neuroblastoma cells. […]

MYC bHLHZip [1] = target: T2, MYC bHLHZip (Homo sapiens, UniProt P01106); assay: MST direct binding to MYC
T2 construct: 6xHis (N); made in house; host or cells: E. coli BL21 (DE3), pET28a; purified in denaturing conditions
T2 sequence (P01106 367-447 limits assumed): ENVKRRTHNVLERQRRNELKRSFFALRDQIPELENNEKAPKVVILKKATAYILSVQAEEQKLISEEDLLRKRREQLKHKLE
Procedure: To determine whether MYCMI-6 binds directly to MYC (or MAX), MST and SPR were applied. The bHLHZip domains of MYC or MAX, respectively (Suppl. Fig. S1C), were titrated and mixed with 3 μM of MYCMI-6.
MST was carried out on a Monolith NT.115 with blue/green filters, kindly provided by Luca Jovine, Karolinska Institutet Huddinge, according to manufacturer’s protocol (NanoTemper). MYCbHLHZip, MAXbHLHZip, BSA and BCL-XL recombinant proteins and compounds were diluted and titrated in PBS supplemented with 0.05% Triton-X-114 or 0.05% Tween-20. Titration of molecules was carried out in 16 PCR tubes into which a fixed concentration of fluorescent molecule was added. The mixture was applied to capillaries (standard treated, NanoTemper), and scanned in the Monolith NT.115 to measure initial fluorescence of molecule. MST was induced and fluorescence was measured during 40 seconds. Double measurements were carried out (MST power of 20% and 40%, or 40% and 60%) for each sample. Delta fluorescence or relative fluorescence of fluorescent molecule normalized to control vehicle was plotted against titrated molecule concentration. The protein labeling kit GREEN-NHS (NanoTemper) was used to label primary amines of proteins according to manufacture’s protocol.

MAX:MAX = assay: MST MAX:MAX; assay type: binding; details: labeled MAX pre-mixed with 1 µM unlabeled MAX
MYC bHLHZip [2] = target: T2, MYC bHLHZip; assay: SPR direct binding to immobilized MYC
Procedure: Further, MYCMI-6 binding to MAX, MXD1 (MAD1) (Figs 4C and S5C and D), p53 (Fig. 4D), BSA (Suppl. Fig. S5E) and YFP (data not shown) were negligible. Binding to BCL-XL was only 10% of the theoretical maximum at 2 μM MYCMI-6 (Suppl. Fig. S5F).
The MYC SPR assay was carried out as described above with MYCbHLHZip immobilized to a level of 800–1000 RU. For kinetic binding experiments, a Langmuir 1:1 binding event was applied using the Biacore T200 Evaluation Software 2.0 (GE Healthcare) to determine association (ka) and dissociation (kd) constants of the compound and to calculate affinity (KD) by the formula; KD = kd/ka. Binding responses from equilibrium binding experiments were plotted against compound concentration and KD values were determined at 50% of the theoretical Rmax with the formula Rmax = (MW analyte/MW ligand) × immobilized ligand level on the chip (RU) × stoichiometry (1:1). Same coupling method described above was used to immobilize the control proteins. MAX was immobilized to approximately 2000 RU, MAD to 600 RU, BSA to 1000 RU, p53 to 3000 RU and BCL-XL, to 500 RU.

MYCN:MAX interaction = system: T3, MYCN:MAX interaction; assay: isPLA endogenous MYCN:MAX in SK-N-BE(2) cells; assay type: cell-based; details: 2.5 μM, 16 hours
T3 construct: endogenous in cells; host or cells: SK-N-BE(2)
Procedure: The isPLA assay has been described. Antibodies used are listed in Supplementary Information. Briefly, cells were grown on collagen-coated chamber slides (Falcon), and treated with 1–10 μM of compounds, respectively, for 16 hours, then washed twice with PBS and fixed in ice cold methanol for 5–15 min at room temperature. Slides were washed in PBS with 0.05% Tween 20 and incubated in blocking buffer after which isPLA was performed using the Duolink® in situ PLA kit (Sigma-Aldrich) according to the manufacturer’s protocol. DNA was stained with DAPI. Incubation with primary antibodies were performed at +4 °C overnight. Images were taken using an Axiovert 200M inverted microscope (Zeiss) and fluorescent dots were quantified using semi-automated analysis in ImageJ (http://imagej.net) and averaged to number of dots per cell.

CCOc1ccc2nc3cc(/N=N/c4ccc(N)nc4N)ccc3c(N)c2c1 [MYCMI-6]
concentration of binding to BCL-XL (BCL-XL): 14 nM | expression of MYCN and MAX (western blot) (MYCN and MAX proteins): maintaining the expression | binding to MYC bHLHZip (MST) (MYC bHLHZip [1]; 3 μM MYCMI-6, changes at 1–15 μM of MYC): binding of MYCMI-6 to MYC | concentration showing relative changes in thermophoresis of labeled MYC (reverse MST) (MYC bHLHZip [1]; labeled MYC approximately 200 nM, MYCMI-6 titrated): above 100 nM | effect on MAX:MAX (MST) (MAX:MAX): minor effects; also recorded: did not inhibit MAX:MAX homodimerization | Kd (MYC bHLHZip [2]; 1:1 Langmuir model, four kinetic experiments, read-out: KD for MYC bHLHZip, SPR kinetic experiments, average): 1.6 ± 0.5 µM | Kd (MYC bHLHZip [2]; 50% of Rmax, four equilibrium experiments, read-out: KD for MYC bHLHZip, SPR equilibrium binding plot): 1.5 to 2 µM | Kd (MYC bHLHZip [2]; Langmuir 1:1, constant Rmax 43 RU, read-out: KD for MYC bHLHZip, SPR, one representative kinetic experiment): 2.5 µM | kon (MYC bHLHZip [2]; SPR, representative experiment, read-out: association rate ka): 9290 M⁻¹ s⁻¹ | koff (MYC bHLHZip [2]; SPR, representative experiment, read-out: dissociation rate kd): 0.0229 s⁻¹ | MYCN:MAX interaction (isPLA) (MYCN:MAX interaction): significantly inhibited
